Test results from US20230331649A1, “INHIBITORS OF PROTEIN FUCOSYLATION AND USES THEREOF” (SIMON FRASER UNIVERSITY, priority 2020, published 2023).

Assays:
[1] = tested on: CHO K1 cells; assay: Cell-based fucosylation assay, fluorescein-AAL lectin staining of CHO K1 cells; parameters: species or system Chinese hamster; settings: Cricetulus griseus, 120 h, five days with inhibitor, 3.2 nM-100 μM, AAL lectin fluorescence normalized to DMSO vehicle
Description: CHO K1 cells were grown in a T175 flask, in F12 medium supplemented with 10% […], at 37° C., 5% CO2. 350 cells were seeded in every well of a 384-well plate (Corning 4680, 45 μL final) and incubated at 37° C. overnight. Inhibitors were stored as 20 mM stock solution in DMSO. Inhibitors were diluted to the desired concentration in CHO cells culture medium and were dispensed into the wells of the plate (50 μL final well volume). An equivalent amount of DMSO (vehicle) was dispensed into control wells. Cells were incubated in the presence of inhibitors for five days. Following treatment, the culture medium was removed and cells were washed four times with 60 μL of PBS-T using a combination washer/dispenser (EL406, Biotek). 50 μL of 4% PFA in PBS-T was then dispensed into the plate and cells were incubated for 15 min at room temperature before being washed four times with 60 μL of PBS-T. Cells were subsequently incubated for 45 minutes at room temperature with 5% Bovine Serum Albumin (BSA) in PBS-T to prevent non-specific lectin binding. The BSA solution was then replaced by 50 μL of a solution of 5 μg/mL of Fluorescein-conjugated Aleuria Aurentia Lectin (AAL) (Vector Laboratories) and cells were kept at room temperature in the dark for 1 h. Negative controls were co-incubated with AAL and 100 mM fucose as a lectin antagonist. Cells were subsequently washed four times with 60 μL PBS-T. Then, 50 μL of 1 μg/mL Hoechst solution in PBS was dispensed into each well and cells were directly imaged using an ImageXpress MicroXLS high content microscope (Molecular Devices). Four sites per wells were imaged using DAPI and FITC channels (50 ms and 300 ms exposure respectively). Images were processed using MetaXpress software. Briefly, for each site, the integrated average fluorescence was quantified and normalized for the corresponding number of cells determined with nuclear staining. Results from each site were combined to provide a single value for each well. At least four independent wells were imaged for each condition providing four biological replicates. IC50 curves were plotted using GraphPad Prism. Results were normalized on the average value for vehicle wells (DMSO treated).
We assessed the potency of carbafucose and selected analogs through dose-response experiments over a 3.2 nM-100 μM range of concentrations in the cell-based assay. The cell-based fucosylation antagonist 2-deoxy-2-fluoro-L-fucose (2FFuc) was used as a control (FIGS. 1A-D).

[2] = tested on: Expi-CHO cells; assay: Glycan analysis of HER2 antibody from compound-treated Expi-CHO cells (PNGaseF release, CE-LIF); format: cell-based, Chinese hamster; settings: 0.1 mM compound added a day after transfection with HER2 antibody, harvested after 8 days, released glycans by CE-LIF; for Glycan A2 (alt name G0) (%): non-fucosylated glycan
Description: Expi-CHO cells were treated with compounds 16, 7, 9, 13, 6, 8, 14 and 15 at 0.1 mM (final conc.) a day after transfection with HER2 antibody. The transfected cells were harvested after 8 days and purified HER2 antibodies were deglycosylated using PNGaseF and the released glycans were purified and analyzed by capillary electrophoresis-laser-induced fluorescence (CE-LIF).

| SMILES | IC50 [1] | Glycan A2BG2 (alt name G2B) (%) [2] | Glycan FA2(3)G1 (alt name G1′F) (%) [2] | Glycan FA2(6)G1 (alt name G1F) (%) [2] | Glycan FA2(6)G1S1 (alt name G1FS1) (%) [2] | Glycan FA2 (alt name G0F) (%) [2] | Glycan FA2G2S1 (alt name G2FS1) (%) [2] | Glycan FA2G2S2 (alt name G2FS2) (%) [2] | Glycan A2 (alt name G0) (%) [2] |
| --- | --- | --- | --- | --- | --- | --- | --- | --- | --- |
| C=C[C@@H]1C[C@H](O)[C@@H](O)[C@H](O)[C@@H]1O [1-42] | 137 ± 79 µM | – | – | – | – | – | – | – | – |
| C[C@@H]1C[C@H](OP(=O)(O)O)[C@@H](O)[C@H](O)[C@@H]1O [2-3] | 39.5 ± 30.3 µM | – | – | – | – | – | – | – | – |
| C[C@@H]1OC(O)[C@@H](F)[C@H](O)[C@@H]1O (stereo partly drawn) [2FFuc, 2-deoxy-2-fluoro-L-fucose, reference compound] | 137 ± 79 µM | – | – | – | – | – | – | – | – |
| CC1=C[C@H](O)[C@@H](F)[C@H](O)[C@@H]1O [Compound 6] | – | 0.8% | 0.6% | 4.1% | 0.8% | 77.7% | 15.9% | 0.0% | 0.0% |
| CC(=O)O[C@H]1[C@H](F)[C@@H](OC(C)=O)C=C(C)[C@H]1OC(C)=O [Compound 7] | – | 0.0% | 0.0% | 3.9% | 0.0% | 79.5% | 16.6% | 0.0% | 0.0% |
| CC1C[C@H](O)[C@@H](F)[C@H](O)[C@@H]1O (stereo partly shown) [Compound 8] | – | 0.0% | 0.0% | 3.9% | 0.0% | 79.3% | 16.8% | 0.0% | 0.0% |
| CC(=O)O[C@H]1[C@H](F)[C@@H](OC(C)=O)CC(C)[C@H]1OC(C)=O (stereo partly shown) [Compound 9] | – | 0.8% | 0.0% | 3.9% | 0.0% | 78.9% | 16.4% | 0.0% | 0.0% |
| CC1=C[C@H](O)[C@@H](O)[C@H](O)[C@@H]1O [Compound 13] | – | 0.8% | 0.0% | 3.9% | 0.9% | 77.3% | 17.0% | 0.0% | 0.0% |
| CC1C[C@H](O)[C@@H](O)[C@H](O)[C@@H]1O (stereo partly shown) [Compound 15] | – | 0.0% | 0.0% | 0.0% | 17.2% | 8.8% | 0.0% | 3.3% | 70.6% |
| C[C@@H]1C[C@H](O)[C@@H](O)[C@H](O)[C@@H]1O [carbafucose] | 16.1 ± 7.7 µM | – | – | – | – | – | – | – | – |
